Test results taken from US20040063783A1, “Nitroso diphenylamine derivatives” (priority 2003, published 2004).

Experiments:
Format in all cases: biochemical
[1] = system: human low molecular weight lipoproteins; experiment: Prevention of cupric-ion oxidation of human low molecular weight lipoproteins (apoprotein B fluorescence), compounds of the formula II; conditions: lipoproteins oxidized with cupric ions for 24 hours at 37° C, fluorescence excitation 360 nm, emission 460 nm
Procedure: In the test carried out, the human low molecular weight lipoproteins are oxidized with cupric ions for 24 hours at 37° C. The B apoprotein bome by these lipoproteins becomes fluorescent on oxidation (excitation at 360 nm, emission at 460 nm). In the presence of the compounds of the formula II, a decrease in fluorescence is noted, which reflects the antioxidant power of the compounds of the formula II. The results are expressed in the form of a 50% inhibitory concentration (IC50).

[2] = Spontaneous nitric oxide release: nitrites+nitrates titrated by colorimetry (Griess reagent, nitrate reductase); conditions: test product final concentration 150 μM; 4 hours at 37° C; pH 7.5 PBS buffer; optical density at 540 nm
Procedure: A solution of a compound of the invention spontaneously releases nitric oxide. The nitrite ions resulting therefrom are titrated by colorimetry by means of a specific reagent (Griess). To take account of any release of nitrate ions in addition to the nitrite ions, bacterial nitrate reductase is added to the reaction medium to allow the nitrate ions formed to be reduced.
The reactions and measurements are carried out in transparent 96-well plates. The test products are dissolved at the time of use to a concentration of 3 mM in dimethyl sulfoxide. 95 μl of a reagent containing nitrate reductase (0.18U/ml in 100 mM pH 7.5 PBS buffer, 210 μM β-NADPH, 5 μM FAD) and 5 μl of a solution of the test product (final concentration of 150 μM) are then added to each well. After stirring, the mixture is left to incubate for 4 hours at 37° C. The reaction is then quenched by addition of 100 μl of the Griess reagent (Sigma G4410). The reagent is allowed to act for 5 minutes at room temperature and the optical density is then read at 540. nm. This value is proportional to the concentration of nitrites+nitrates in the medium. A calibration range is made for each plate using NaNO2.
The results are expressed as […] (μM) of nitrites+nitrates released, in Table 5 below.

Human LDLs = experiment: Oxidation of human LDL in the presence of cupric ion (fluorescence), antioxidant effect; conditions: human LDL 120 μg/ml, 100 μM CuCl2; difference of fluorescence readings at 2 h and 24 h, 37° C; from 3 product concentrations
Procedure: Human LDLs dissolved in aqueous solution in the presence of cupric ion become spontaneously oxidized on their protein component, apolipoprotein B. This oxidation makes the particle fluorescent, which is exploited to measure a pharmacological effect.
The reactions and measurements are carried out in black 96-well plates, 10 μl of a solution of the test product dissolved in dimethyl sulfoxide are first mixed with 170 μl of a solution of human LDL at 120 μg/ml and 20 μl of 100 μM CuCl2. After stirring, the mixture is left to incubate for 2 hours at 37° C., and a first fluorescence reading is taken (excitation at 360 nm, reading at 460 nm). The mixture is then left to incubate for a further 22 hours, to take a second reading under the same conditions. The difference between the two values obtained is the measurement of the oxidation of the LDLs in solution. This difference is proportionately smaller the greater the antioxidant power of the test product. Probucol is used as reference product at 10 μM.
The concentrations which inhibit the oxidation by 50% (IC50) are produced from 3 product concentrations.

Question: Which IC50 [1] does the source give for O=S(=O)(Nc1ccc(Nc2ccccc2)cc1)c1cccc(F)c1 [T=H, X=H, A=SO2, Y=3-F—C6H4—] here?
Answer: Its IC50 is 3.7 µM.

Question: For O=NN(c1ccccc1)c1ccc(NS(=O)(=O)c2cccnc2)cc1 [Example 6], which “Nitrates + nitrites” value [2] is on record?
Answer: The value was 83 µM.

Question: And the IC50 (Human LDLs)?
Answer: The IC50 was 6.5 µM.

Question: For CC(=O)Nc1ccc(S(=O)(=O)Nc2ccc(Nc3ccccc3)cc2)cc1Cl [T=H, X=H, A=SO2, Y=3-Cl,4-CH3CONH—C6H3—], which IC50 [1] is on record?
Answer: The IC50 was 13.4 µM.

Question: For O=S(=O)(Nc1ccc(Nc2ccccc2)cc1)c1cccs1 [T=H, X=H, A=SO2, Y=2-thienyl], which IC50 [1] is on record?
Answer: The IC50 was 3.3 µM.

Question: Which IC50 [1] does the source give for CSc1ccc(Nc2ccc(NC(=O)c3ccccc3)cc2)cc1 [T=4-MeS—, X=H, A=CO, Y=C6H5] here?
Answer: Its IC50 is 1.8 µM.

Question: For COc1ccc(Nc2ccc(NC(=O)c3ccco3)cc2)cc1 [T=4-MeO—, X=H, A=CO, Y=2-furyl], which IC50 [1] is on record?
Answer: Its IC50 is 8.4 µM.

Question: With COc1ccc(N(N=O)c2ccc(NC(=O)c3cccc([N+](=O)[O-])c3)cc2)cc1 [Example 18] as the molecule, how does the “Nitrates + nitrites” value [2] read?
Answer: Its value is 71 µM.

Question: What about the IC50 (Human LDLs) of the same molecule?
Answer: The IC50 was 3.7 µM.

Question: Which IC50 [1] does the source give for COc1ccc(Nc2ccc(NC(=O)c3cnc(Cl)nc3)cc2)cc1 here?
Answer: Its IC50 is 2.6 µM.

Question: Which IC50 [1] does the source give for COc1ccc(Nc2ccc(NC(=O)c3cccc(C(F)(F)F)c3)cc2)cc1 [T=4-MeO—, X=H, A=CO, Y=3-CF3—C6H4—] here?
Answer: Its IC50 is 6.4 µM.

Question: For O=S(=O)(/C=C/c1ccccc1)Nc1ccc(Nc2ccccc2)cc1, which IC50 [1] is on record?
Answer: The IC50 was 12.2 µM.

Question: With O=NN(c1ccccc1)c1ccc(NC(=O)Nc2ccccc2)cc1 [Example 8] as the molecule, how does the “Nitrates + nitrites” value [2] read?
Answer: Its value is 44 µM.

Question: And the IC50 (Human LDLs)?
Answer: Its IC50 is 5.4 µM.

Question: For CCCCCCc1ccc(C(=O)Nc2ccc(Nc3ccc(OC)cc3)cc2)s1, which IC50 [1] is on record?
Answer: Its IC50 is 11.1 µM.

Question: With COc1ccc(Nc2ccc(NC(=O)c3cc([N+](=O)[O-])ccc3Oc3ccc(OC)cc3)cc2)cc1 as the molecule, how does the IC50 [1] read?
Answer: The IC50 was 8.8 µM.

Question: With COc1ccc(Nc2ccc(NC(=O)c3ccc(N(C)C)cc3)cc2)cc1 [T=4-MeO—, X=H, A=CO, Y=4-(CH3)2N—C6H4—] as the molecule, how does the IC50 [1] read?
Answer: The IC50 was 11.2 µM.

Question: With COc1ccc(Nc2ccc(NC(=O)OCc3ccccc3)cc2)cc1 [253 (formula II), Benzyl 4-[(4-methoxyphenyl)amino]phenylcarbamate] as the molecule, how does the IC50 [1] read?
Answer: Its IC50 is 2 µM.

Question: Which results are given for COc1ccc(N(N=O)c2ccc(NC(=O)c3cccnc3)cc2)cc1 [Example 1, N-nitroso[4-methoxyphenyl][4-(3-pyridylcarbonylamino)phenyl]amine]?
Answer: Nitrates + nitrites [2]: 97 µM; IC50 (Human LDLs): 6.4 µM

Question: Which IC50 [1] does the source give for COc1ccc(Nc2ccc(NC(=O)c3cc(Cl)cnc3Cl)cc2)cc1 here?
Answer: The IC50 was 5.4 µM.

Question: Which IC50 [1] does the source give for COc1ccc(Nc2ccc(NC(=O)c3cc(C(C)(C)C)c(O)c(C(C)(C)C)c3)cc2)cc1 here?
Answer: The IC50 was 9.4 µM.

Question: Which IC50 [1] does the source give for CCn1nc(C)cc1C(=O)Nc1ccc(Nc2ccc(OC)cc2)cc1 here?
Answer: The IC50 was 8.3 µM.

Question: Which IC50 [1] does the source give for N#Cc1ccc(S(=O)(=O)Nc2ccc(Nc3ccccc3)cc2)cc1 [T=H, X=H, A=SO2, Y=4-CN—C6H4] here?
Answer: Its IC50 is 11.8 µM.

Question: Which IC50 [1] does the source give for COc1ccc(Nc2ccc(NS(=O)(=O)c3cccnc3)cc2)cc1 [T=4-Me—O—, X=H, A=SO2, Y=3-pyridyl] here?
Answer: Its IC50 is 7.9 µM.

Question: For O=NN(c1ccccc1)c1ccc(NS(=O)(=O)c2ccccc2)cc1 [Example 45], which “Nitrates + nitrites” value [2] is on record?
Answer: Its value is 62 µM.

Question: And the IC50 (Human LDLs)?
Answer: The IC50 was 3.2 µM.

Question: Which results are given for COc1ccc(N(N=O)c2ccc(NC(=O)c3cncnc3)cc2)cc1 [Example 4]?
Answer: Nitrates + nitrites [2]: 84 µM; IC50 (Human LDLs): 5.4 µM

Question: With COc1ccc(Nc2ccc(NC(=O)c3cncnc3)cc2)cc1 [T=4-Me—O—, X=H, A=CO, Y=5-pyrimidyl, 4-methoxy4′-[5-pyrimidinylcarbonylamino]diphenylamine] as the molecule, how does the IC50 [1] read?
Answer: Its IC50 is 5.2 µM.

Question: For CC(=O)Nc1ccc(S(=O)(=O)Nc2ccc(Nc3ccccc3)cc2)cc1 [T=H, X=H, A=SO2, Y=4-CH3CONH—C6H4—], which IC50 [1] is on record?
Answer: Its IC50 is 12.3 µM.

Question: Which IC50 [1] does the source give for COc1ccc(Nc2ccc(NC(=O)c3cc4cccc(OC)c4oc3=O)cc2)cc1 here?
Answer: The IC50 was 8.7 µM.

Question: Which results are given for O=NN(c1ccccc1)c1ccc(NC(=O)c2cccnc2)cc1 [Example 57]?
Answer: Nitrates + nitrites [2]: 109 µM; IC50 (Human LDLs): 8.9 µM

Question: Which IC50 [1] does the source give for COc1ccc(Nc2ccc(NC(=O)c3cccc([N+](=O)[O-])c3)cc2)cc1 [T=4-Me—O—, X=H, A=CO, Y=3-NO2—C6H4—] here?
Answer: Its IC50 is 6.5 µM.

Question: With CC(C)(Sc1cc(C(C)(C)C)c(O)c(C(C)(C)C)c1)Sc1cc(C(C)(C)C)c(O)c(C(C)(C)C)c1 [Probucol, reference compound] as the molecule, how does the IC50 (Human LDLs) read?
Answer: The IC50 was 6.4 µM.

Question: For COc1ccc(Nc2ccc(NC(=O)c3sc(S(C)(=O)=O)c4c3CCC=C4)cc2)cc1, which IC50 [1] is on record?
Answer: Its IC50 is 7.3 µM.

Question: With COc1ccc(Nc2ccc(NC(=O)Cc3cc(C(C)(C)C)c(O)c(C(C)(C)C)c3)cc2)cc1 as the molecule, how does the IC50 [1] read?
Answer: The IC50 was 2.8 µM.

Question: For COc1ccc(Nc2ccc(NC(=O)/C=C/c3ccccc3[N+](=O)[O-])cc2)cc1, which IC50 [1] is on record?
Answer: The IC50 was 13.3 µM.

Question: With COc1ccc(Nc2ccc(NS(=O)(=O)c3ccc(OC)cc3)cc2)cc1 [T=4-MeO—, X=H, A=SO2, Y=4-MeO—C6H4—] as the molecule, how does the IC50 [1] read?
Answer: Its IC50 is 5 µM.

Question: With COc1ccc(Nc2ccc(NC(=O)c3cccnc3Oc3ccc(Cl)cc3)cc2)cc1 as the molecule, how does the IC50 [1] read?
Answer: Its IC50 is 3.6 µM.

Question: For O=[N+]([O-])c1ccc(S(=O)(=O)Nc2ccc(Nc3ccccc3)cc2)cc1 [T=H, X=H, A=SO2, Y=4-NO2—C6H4], which IC50 [1] is on record?
Answer: Its IC50 is 4.3 µM.

Question: Which IC50 [1] does the source give for O=S(=O)(Nc1ccc(Nc2ccccc2)cc1)c1cccnc1 [T=H, X=H, A=SO2, Y=3-pyridyl] here?
Answer: The IC50 was 7.4 µM.

Question: For CC(C)(C)c1cc(CC(=O)Nc2ccc(Nc3ccccc3)cc2)ccc1O, which IC50 [1] is on record?
Answer: Its IC50 is 4.8 µM.

Question: For COc1ccc(N(N=O)c2ccc(NC(=O)OCc3ccccc3)cc2)cc1 [Example 253, Benzyl 4-[1-(4-methoxyphenyl)-2-oxohydrazino]phenylcarbamate], which “Nitrates + nitrites” value [2] is on record?
Answer: Its value is 45 µM.

Question: And the IC50 (Human LDLs)?
Answer: Its IC50 is 3.6 µM.

Question: For COc1ccc(Nc2ccc(NC(=O)c3cccnc3)cc2)cc1 [T=4-MeO—, X=H, A=CO, Y=3-pyridyl], which IC50 [1] is on record?
Answer: The IC50 was 3.8 µM.

Question: Which IC50 [1] does the source give for COc1ccc(Nc2ccc(NC(=O)c3ccc[n+]([O-])c3)cc2)cc1 here?
Answer: The IC50 was 10.5 µM.

Question: With COc1ccc(Nc2ccc(NS(=O)(=O)c3cccc4cccnc34)cc2)cc1 as the molecule, how does the IC50 [1] read?
Answer: Its IC50 is 8.7 µM.

Question: Which “Nitrates + nitrites” value [2] does the source give for COc1ccc(N(N=O)c2ccc(NC(=O)c3ccc(C#N)cc3)cc2)cc1 [Example 12] here?
Answer: The value was 22 µM.

Question: And the IC50 (Human LDLs)?
Answer: The IC50 was 2.2 µM.

Question: Which results are given for COc1ccc(N(N=O)c2ccc(NS(=O)(=O)c3ccc(OC)cc3)cc2)cc1 [Example 86]?
Answer: Nitrates + nitrites [2]: 79 µM; IC50 (Human LDLs): 3.8 µM
